This is an account of results in patent publication US20190358343A1, “ADOPTIVE TRANSFER OF CAR T CELLS WITH SURFACE-CONJUGATED DRUG-LOADED NANOPARTICLES AND USES THEREOF” (University of Southern California, priority 2017, published 2019).

The test system of data set [1] is PBMCs. The data set can be described thus: In vitro XTT assay. It is filed as cell-based, human. The text has this: (§1) Based on the procedure of nanoparticle-cell surface conjugation developed in Stephen et al (2010), we pioneered the utilization of CAR engineered human PBMCs as therapeutic cells that have nanoparticles conjugated to the surface. The nanoparticles encapsulate small molecule inhibitors of the A2a receptor, e.g., SCH 58261, which is highly hydrophobic and is generally unsuitable for systemic infusion. […] Therefore, SCH 58261 is a suitable drug to illustrate the advantage of this T cell-nanoparticle cargo system for the purposes of enhancing CAR T cell therapy by co-delivering therapeutic cells and adjuvant in the same unit. Compare with other compositions or systems to block the A2aR pathway, such as genetically engineering CAR-T cells with the CRISPR/Cas system or receptor siRNA knock down, a major advantage of presently disclosed composition and method is the ability of the drug to affect endogenous T cells and circulating CAR-T cells, as well as the carrier CAR-T cells themselves.

The test system of data set [2] is tumor cells (SKOV3-CD19+). In words: In vitro XTT assay. It is filed as cell-based, human.
From the text: as §1

For data set [3] the following is noted: cited from earlier work.
Data set [4] concerns the target adenosine receptor A2A (Homo sapiens, UniProt P29274). The conditions noted are these: cited from earlier work.

Like-named read-outs stand apart in the source and are kept apart here.

adenosine receptor A2A, sequence (P29274 whole entry, species assumed): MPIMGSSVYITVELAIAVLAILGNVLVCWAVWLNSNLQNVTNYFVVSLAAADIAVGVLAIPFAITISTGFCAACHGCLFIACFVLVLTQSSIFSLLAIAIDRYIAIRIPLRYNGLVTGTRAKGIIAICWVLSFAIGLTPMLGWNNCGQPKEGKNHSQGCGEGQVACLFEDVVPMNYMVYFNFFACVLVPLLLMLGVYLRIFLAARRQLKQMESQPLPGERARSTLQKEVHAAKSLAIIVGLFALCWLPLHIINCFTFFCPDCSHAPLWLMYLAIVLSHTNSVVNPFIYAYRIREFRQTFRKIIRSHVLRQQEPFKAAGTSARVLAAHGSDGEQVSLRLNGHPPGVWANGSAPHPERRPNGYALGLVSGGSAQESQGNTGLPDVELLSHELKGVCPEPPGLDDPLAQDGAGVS

As to `Nc1nc2c(cnn2CCc2ccccc2)c2nc(-c3ccco3)nn12` [SCH-58261], the cytotoxic effects result in data set [1] was “does not have cytotoxic effects”; in data set [2], “does not have cytotoxic effects”; in data set [2] (listed as SCH), “not directly affected”. Further, the solubility entry in data set [3] was “poor solubility”. Further, the “selectivity for A2A over other adenosine receptors” value in data set [4] is “more than 50 times”.
